Patent publication US7541374B2, “Malononitrile compounds and use thereof” (Sumitomo Chemical Company, Limited, priority 2004, dated 2009)

How the values were obtained:
Type in all cases: in vivo
[1] = tested on: Musca domestica; test: Test Example 3: treated filter paper with sucrose bait, Musca domestica; settings: 500 ppm, 0.7 ml on filter paper; ten female Musca domestica imagoes; after 24 hours; read-out: rate of dead pests
Method: (§1) The formulation obtained according to Formulation Example 5 using the compound of the present invention (2), (3), (4), (6), (7), (8), (11), (12), (13), (15), (16), (19), (20), (21), (22), (28), (29), (30), (31), (32), (33), (34), (36), (37), (38) and (39) respectively, was diluted with water so that the active ingredient concentration came to 500 ppm to prepare a pesticidal solution for test.
(§2) On the bottom of a polyethylene cup having a diameter of 5.5 cm, a filter paper having the same diameter was laid, and 0.7 ml of the above pesticidal solution for test was added dropwise on the filter paper, followed by putting 30 mg of sucrose on it uniformly as a bait. Ten female Musca domestica imagoes were set free in the polyethylene cup and covered it with a lid. After 24 hours, the number of surviving and dead Musca domestica was examined and the rate of dead pests was calculated.

[2] = tested on: Blattella germanica; test: Test Example 4: treated filter paper with sucrose bait, Blattella germanica; settings: 144 h; 500 ppm, 0.7 ml on filter paper; two male Blattella germanica imagoes; after 6 days; read-out: rate of dead pests
Method: as §1, with “(8), (9),” for “(8),”, “(16), (18),” for “(16),”, “(22), (27),” for “(22),”, “(34), (35),” for “(34),”, “(38), (43)” for “(38)”, “[…]” for “(39)”
as §2, with “Two male Blattella germanica” for “Ten female Musca domestica”, “6 days,” for “24 hours,”, “Blattella germanica” for “Musca domestica”

[3] = tested on: Culex pipiens pallens; test: Test Example 5: larvae in treated water, Culex pipiens pallens; settings: 24 h; active ingredient concentration 3.5 ppm in water; twenty last-instar larvae of Culex pipiens pallens; after one day; read-out: rate of dead pests
Method: The formulation obtained according to Formulation Example 5 using the compound of the present invention (1), (2), (3), (4), (5), (6), (7), (8), (9), (10), (11), (12), (13), (14), (15), (16), (17), (18), (19), (20), (21), (22), (23), (25), (27), (28), (29), […], (31), (32), (33), (34), (35), (36), (37), (38), (39), (41), (44), (45), (46), (47) and (48) respectively, was diluted with water so that the active ingredient concentration came to 500 ppm to prepare a pesticidal solution for test.
0.7 ml of above pesticidal solution for test was added to 100 ml of ion exchanged water (active ingredient concentration: 3.5 ppm). Twenty last-instar larvae of Culex pipiens pallens were set free in the solution. After one day, the number of surviving and dead Culex pipiens pallens was examined and the rate of dead pests was calculated.

SMILES	pest or weed control at 500 ppm [1] [%]	pest or weed control at 500 ppm [2] [%]	pest or weed control at 3.5 ppm [3] [%]
CC(C)c1nn(CC(C#N)(C#N)CCC(F)(F)F)cc1Br [compound of the present invention (11), [(4-bromo-3-i-propyl-1H-pyrazole-1-yl)methyl] (3,3,3-trifluoropropyl) malononitrile]	≥ 90	100	≥ 95
CC(C)(C)c1nn(CC(C#N)(C#N)CCC(F)(F)F)cc1Br [compound of the present invention (12), [(4-bromo-3-t-butyl-1H-pyrazole-1-yl)methyl](3,3,3-trifluoropropyl) malononitrile]	≥ 90	100	≥ 95
CC(C)(C)c1nn(CC(C#N)(C#N)CCC(F)(F)F)cc1Cl [compound of the present invention (13), [(4-chloro-3-t-butyl-1H-pyrazole-1-yl)methyl](3,3,3-trifluoropropyl) malononitrile]	≥ 90	100	≥ 95
N#CC(C#N)(CCC(F)(F)F)Cn1cc(Br)c(C(F)(F)F)n1 [compound of the present invention (15), [(4-bromo-3-trifluoromethyl-1H-pyrazole-1-yl)methyl](3,3,3-trifluoropropyl) malononitrile]	≥ 90	100	≥ 95
C=CCC(C#N)(C#N)Cn1cc(Br)c(C(F)(F)F)n1 [compound of the present invention (16)]	≥ 90	100	≥ 95
N#CC(C#N)(CCC(F)(F)F)Cn1cc(Cl)cn1 [compound of the present invention (19), [(4-chloro-1H-pyrazole-1-yl)methyl](3,3,3-trifluoropropyl) malononitrile]	≥ 90	100	≥ 95
C=CCC(C#N)(C#N)Cn1cc(Cl)cn1 [compound of the present invention (20), allyl [(4-chloro-1H-pyrazole-1-yl)methyl]malononitrile]	≥ 90	100	≥ 95
N#CC(C#N)(CCC(F)(F)F)Cn1cc(Br)cn1 [compound of the present invention (21), [(4-bromo-1H-pyrazole-1-yl)methyl](3,3,3-trifluoropropyl) malononitrile]	≥ 90	100	≥ 95
N#CC(C#N)(CCC(F)(F)F)Cn1cc(C(F)(F)F)cn1 [compound of the present invention (22), {[4-(trifluoromethyl)-1H-pyrazole-1-yl]methyl}(3,3,3-trifluoropropyl) malononitrile]	≥ 90	100	≥ 95
CC(C)c1ncn(CC(C#N)(C#N)CCC(F)(F)F)n1 [compound of the present invention (28), [(3-i-propyl-1H-1,2,4-triazole-1-yl)methyl](3,3,3-trifluoropropyl) malononitrile]	≥ 90	100	≥ 95
CC(C)(C)c1ncn(CC(C#N)(C#N)CCC(F)(F)F)n1 [compound of the present invention (29), [(3-t-butyl-1H-1,2,4-triazole-1-yl)methyl](3,3,3-trifluoropropyl) malononitrile]	≥ 90	100	≥ 95
C=CCC(C#N)(C#N)Cn1cnc(C(C)(C)C)n1 [compound of the present invention (31), allyl [(3-t-butyl-1H-1,2,4-triazole-1-yl)methyl]malononitrile]	≥ 90	100	≥ 95
CC(C)(C)c1nc(Br)n(CC(C#N)(C#N)CCC(F)(F)F)n1 [compound of the present invention (32), [(5-bromo-3-t-butyl-1H-1,2,4-triazole 1-yl)methyl](3,3,3-trifluoropropyl)malononitrile]	≥ 90	100	≥ 95
N#CC(C#N)(CCC(F)(F)F)Cn1cnc(C(F)(F)F)n1 [compound of the present invention (33), {[3-(trifluoromethyl)-1H-1,2,4-triazole-1-yl]methyl}(3,3,3-trifluoropropyl)malononitrile]	≥ 90	100	≥ 95
N#CC(C#N)(CCC(F)(F)F)Cn1cnc(C(F)(F)C(F)(F)F)n1 [compound of the present invention (34), {[3-(pentafluoroethyl)-1H-1,2,4-triazole 1-yl]methyl}(3,3,3-trifluoropropyl) malononitrile]	≥ 90	100	≥ 95
N#CC(C#N)(CCC(F)(F)F)Cn1ccc(C(F)(F)C(F)(F)F)n1 [compound of the present invention (36), {[3-(pentafluoroethyl)-1H-pyrazole-1-yl]methyl}(3,3,3-trifluoropropyl)malononitrile]	≥ 90	100	≥ 95
N#CC(C#N)(CCC(F)(F)F)Cn1cc(Br)c(C(F)(F)C(F)(F)F)n1 [compound of the present invention (37), [(4-bromo-3-(pentafluoroethyl)-1H-pyrazole-1-yl)methyl](3,3,3-trifluoropropyl) malononitrile]	≥ 90	100	≥ 95
N#CC(C#N)(CCC(F)(F)F)Cn1cnc(C(F)(F)F)c1 [compound of the present invention (38), {[4-(trifluoromethyl)-1H-imidazole-1-yl]methyl}(3,3,3-trifluoropropyl) malononitrile]	≥ 90	100	≥ 95
